# Test results published in PMC9395490, “An open-label, crossover study to compare different formulations and evaluate effect of food on pharmacokinetics of pimitespib in patients with advanced solid tumors” (Investigational New Drugs, 2022).
# Read-outs that look alike come from different tables or passages of the source.
# Columns and labels:
# [1] = tested on: patients with advanced solid tumors; design: method as in PMID 30679388; conditions: phase I; cited from earlier work
# [2] = PK evaluation period, Cohort 2: food effect, single dose of Formulation A under fed vs fasting conditions (crossover); format: in vivo, patients with advanced solid tumors
# Experimental: For fasting conditions, patients were required to fast at least 10 h before dosing and at least 4 h after dosing and abstain from drinking water 1 h before and after administration, excluding the water consumed at the time of dosing. For fed conditions, patients were required to fast for at least 10 h before dosing and at least 4 h after dosing (except for the scheduled study meal) and abstain from drinking for 1 h before and after administration, except for drinking water. The study drug was administered within 30 min of completing the meal. The study meal was a high-fat (approximately 50% of the total caloric content of the meal) and high-calorie (572–715 kcal) meal considering the weight ratio of Japanese to American individuals. […]
# For the analyses related to Cohort 2, the ANOVA model included treatment (fasting and fed conditions), treatment period, and treatment sequence as fixed effects, and patients nested within treatment sequence as a random effect. The GMR and 90% CI of the fed condition to the fasting condition were calculated.
# [3] = PK evaluation period, Cohort 1: single dose of Formulation A vs Formulation B under fasting conditions (crossover); format: in vivo, patients with advanced solid tumors
# Experimental: This clinical, pharmacological, multicenter study was conducted in Japan and consisted of two cohorts (Cohorts 1 and 2) and two periods. The patients were first assigned to the pharmacokinetic evaluation period to investigate PK parameters of each formulation (Cohort 1) or the effect of food (Cohort 2), and then to the consecutive administration period (Supplementary Fig. 1).
# In both cohorts, a randomized cross-over design was used.
# For fasting conditions, patients were required to fast at least 10 h before dosing and at least 4 h after dosing and abstain from drinking water 1 h before and after administration, excluding the water consumed at the time of dosing. For fed conditions, patients were required to fast for at least 10 h before dosing and at least 4 h after dosing (except for the scheduled study meal) and abstain from drinking for 1 h before and after administration, except for drinking water. The study drug was administered within 30 min of completing the meal. The study meal was a high-fat (approximately 50% of the total caloric content of the meal) and high-calorie (572–715 kcal) meal considering the weight ratio of Japanese to American individuals. The meal’s nutritional value was adjusted based on the body weight of Japanese patients according to the US FDA standard guidance. It was recommended that study drug dosing be done with 100–200 (usually 150) mL of water.
# Patients underwent hematologic, coagulation, biochemical laboratory examinations, urinalysis, electrocardiogram, ophthalmologic examination, and vital sign and body weight assessments. Blood collection occurred before pimitespib administration and at 0.5, 1, 2, 4, 6, 8, 10, 24, and 48 h after administration at the first and second doses.
# For Cohort 1 analyses, the values of the natural log-transformed PK parameters (Cmax, AUClast, AUCinf, terminal elimination rate constant [λz], and mean residence time) were analyzed using analysis of variance (ANOVA), using Phoenix® WinNonlin® Ver. 8.1. […] The time to maximum plasma concentration (tmax) was not transformed and was analyzed using Wilcoxon’s signed-rank test, conducted using EXSUS version 10.0.3. The significance level was set at 5%.
# [4] = tested on: patients with advanced GIST; design: method as in PMID 31536852; conditions: phase II, advanced GIST failed or intolerant to imatinib, sunitinib, regorafenib; cited from earlier work
# [5] = tested on: patients with advanced GIST; design: method as in doi:10.1200/JCO.2021.39.15_suppl.11524; conditions: phase III, cited from earlier work
smiles,measurement,setting,value
"CCc1cc(C(N)=O)ccc1-n1nc(C(C)C)c2c(-n3cnc(-c4cnn(C)c4)c3)ccnc21 [pimitespib, Pimitespib]",patients with GIST achieving a partial response,[1],one
same,patients with non-small cell lung cancer achieving a partial response,[1],two
same,"AUC under fed conditions, fold higher than under fasting conditions",[2],~1.6 fold
same,"Cmax under fed conditions, fold higher than under fasting conditions",[2],approximately 1.9 fold
same,inter-subject CV% for AUCinf,[3],54.4%
same,inter-subject CV% for AUClast,[3],52.6%
same,inter-subject CV% for Cmax,[3],63.8%
same,intra-subject CV% for AUCinf,[3],24.9%
same,intra-subject CV% for AUClast,[3],24.4%
same,intra-subject CV% for Cmax,[3],28.5%
same,median PFS,[4],4.4 months
same,median PFS,"[5]; advanced GIST refractory or intolerant to imatinib, sunitinib, regorafenib",2.8 months
same,hazard ratio (HR) for PFS,[5]; pimitespib vs placebo,0.51
